Reference: US6395758B1, “Small molecule carbamates or ureas for vision and memory disorders” (GPI Nil Holdings, Inc., priority 1998, dated 2002)
Marks after values point to notes of the source that are not given here.

Key:
[1] = test system: retinal ganglion cell axons; test: Protection of retinal ganglion cell axons 14 days after optic nerve transection (Table E); format: in vivo; details: ± SEM
Excerpt: Efficacy of representative compounds from different immunophilin ligand series in protecting retinal ganglion cell axons from degeneration following optic nerve transection is set forth in Table E.

[2] = Clearance (Table E comments); format: in vitro ADME; details: no method given
FKBP12 = FKBP12 (Homo sapiens, UniProt P62942); test: Ki test: inhibition of peptidyl-prolyl isomerase (rotamase) activity, chymotrypsin-coupled assay; format: biochemical; details: apparent Ki, Table II
FKBP12, sequence (P62942 whole entry, species assumed): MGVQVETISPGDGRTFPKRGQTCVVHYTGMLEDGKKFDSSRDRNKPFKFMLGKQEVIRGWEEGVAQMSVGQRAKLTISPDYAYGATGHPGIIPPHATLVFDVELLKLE
Excerpt: The inhibition of the prolyl peptidyl cis-trans isomerase activity of FKBP may be measured as an indicator of this affinity. Inhibition of the peptidyl-prolyl isomerase (rotamase) activity of the compounds used in the inventive methods and pharmaceutical compositions can be evaluated by known methods described in the literature (Harding et al., Nature, 1989, 341:758-760; Holt et al. J. Am. Chem. Soc., 115:9923-9938). […] The cis-trans isomerization of an alanine-proline bond in a model substrate, N-succinyl-[…]-nitroanilide, is monitored spectrophotometrically in a chymotrypsin-coupled assay, which releases para-nitroanilide from the trans form of the substrate. The inhibition of this reaction caused by the addition of different concentrations of inhibitor is determined, and the data is analyzed as a change in first-order rate constant as a function of inhibitor concentration to yield the apparent Ki values. […] The absorbance at 390 nm versus time is monitored for 90 seconds using a spectrophotometer and the rate constants are determined from the absorbance versus time data files.

[3] = test system: retinal ganglion cells, optic nerve axons and myelin; test: Retinal ischemia (intraocular pressure raised above arterial pressure), evaluation 28 days later; format: in vivo, rats
Excerpt: Retinal ganglion cells were retrogradely labeled in adult rats by bilateral injection of fluorogold in their lateral geniculate nuclei. Labeled ganglion cells in the normal rat retina appear as white profiles against the dark background (FIG. 1A). Complete retinal ischemia was produced by infusing normal saline solution into the retinal vitreous cavity of each eye until the intraocular pressure exceeded arterial blood pressure. 28 days after the ischemic episode extensive degeneration of retinal ganglion cell was evidenced by massive reduction in the density of fluorogold labeled cells (FIG. 1B).
Optic nerves from vehicle treated cases examined 28 days after a 1 hour retinal ischemic episode are characterized by a decreased density of optic nerve axons and the appearance of numerous degenerating myelin figures (bright white filled circles).

[4] = test system: streptozotocin-induced diabetic rat; test: Streptozotocin-induced diabetic sensory neuropathy, hot plate and tail flick; format: in vivo, Male Wistar rats; details: treated for 6 weeks at 10 mg/kg s.c., started six weeks after streptozotocin
Procedure: The procedure involved using Male Wistar rats which were given a single injection of streptozotocin (65 mg/kg i.v.). Blood glucose levels were determined weekly for the first three weeks and on the last week of the experiment. Animals were evaluated weekly for signs of sensory neuropathy using the conventional hot plate and tail flick apparatus test procedures.

[5] = test system: retinal ganglion cells and optic nerve axons; test: Optic nerve transection, 14 or 28 day treatment, evaluation 90 days after transection; format: in vivo, Sprague Dawley rats; details: 90 days after ONT; for increased ON axon density: adjusted for optic nerve diameter; for ON axon Count: axonal density multiplied by ON area; for Proximal optic nerve myelin basic protein Density, % recovery: ± SEM
Excerpt: All eyes and optic nerves stumps were removed.

[6] = test system: retina (neovascularization, INL, GCL, ONL neurons); test: Streptozotocin induced diabetes, retinal neovascularization and neuron loss; format: in vivo
[7] = test system: retinal ganglion cells and their axons; test: Example 18: optic nerve transection, 28 day GPI-1046, sacrifice at 90 days; format: in vivo, Sprague Dawley rats; details: 10 mg/kg/day s.c. for 28 days; 90 days after transection
Excerpt: Transection of the mammalian optic nerve results in a brief period of abortive regeneration, but the majority of axotomized neurons die and the axons from many persisting ganglion cells die back beyond the optic nerve head.

aged impaired mice = test: Morris watermaze, spatial learning and memory in aged rodents; format: in vivo, C57BL/6N-Nia mice; details: 10 mg/kg daily
Excerpt: The Morris watermaze is widely used for assessing spatial memory formation and retention in experimental animals. The test depends on the animal's ability to utilize spatial visual information in order to locate a submerged escape platform in a water tank. It is important that the tank itself be as devoid of specific visual features as possible—thus, it is always circular in shape, the sides are kept smooth and in uniform dull colors, and the water is rendered opaque with nontoxic watercolor pigment or powdered milk. This is to ensure that the animal navigates only by the use of more distant visual cues, or by the use of intra-maze cues specifically provided by the experimenter. The animals' path, speed, and swim time are tracked with a ceiling camera for later computerized analysis. Over the course of several successive trials, spatial learning can therefore be defined as a drop of distance swum, or time elapsed, from placement in the tank until escape onto the invisible platform. The procedure involved using three-month old (young) and 18-19 month old male C57BL/6N-Nia (aged) mice which habituated to the well known and conventional Morris watermaze during a 4 trials/day, 3-4 day visible platform training phase. […] Swim Distances (cm) were analyzed in a 7×5 ANOVA including Groups and Blocks (1-5) as factors in the analysis, treating Blocks as a repeated measure.

[8] = 28 day treatment beginning 8 weeks after onset of streptozotocin diabetes

O=C(SCCCc1ccccc1)[C@@H]1CCCN1C(=O)NC12CC3CC(CC(C3)C1)C2 [B]
RT97 + RGC axon density 14 days after ON transection (% ON axons rescued) [1]: 100.0% ± 5.2% SEM

O=C(SCCCc1ccccc1)[C@@H]1CCCN1S(=O)(=O)Cc1ccccc1 [C]
Clearance [2]: 31.1 µL/min
RT97 + RGC axon density 14 days after ON transection (% ON axons rescued) [1]: 60.4% ± 3.1% SEM

CCC(C)CNC(=O)N1CCC[C@H]1C(=O)OCCCc1cccnc1 (stereo partly drawn) [Compound 1, 3-(3-pyridyl)-1-propyl (2S)-1-[(2-methylbutyl)carbamoyl]pyrrolidine-2-carboxylate]
Ki (FKBP12): 70 nM

CCC(C)(C)NC(=O)N1CCC[C@H]1C(=O)OCCCc1cccnc1 [Compound 2, 3-(3-Pyridyl)-1-propyl (2S)-1-[(1′,1′-dimethylpropyl)carbamoyl]pyrrolidine-2-carboxylate]
Ki (FKBP12): 742 nM

O=C(OCCCc1cccnc1)[C@@H]1CCCN1C(=O)NC1CCCCC1 [Compound 4, 3-(3-pyridyl)-1-propyl (2S)-1-[(cyclohexyl)carbamoyl]-pyrrolidine-2-carboxylate]
Ki (FKBP12): 1480 nM

O=C(OCCCc1cccnc1)[C@@H]1CCCN1C(=S)NC12CC3CC(CC(C3)C1)C2 [Compound 5, 3-(3-pyridyl)-1-propyl (2S)-1-[(1-adamantyl)thiocarbamoyl]-pyrrolidine-2-carboxylate]
Ki (FKBP12): 116 nM

CCC(C)(C)C(=O)C(=O)N1CCCC[C@H]1C(=O)SCCC(c1ccccc1)c1ccccc1 [Compound K]
Clearance [2]: 4.5 µL/min

CCC(C)(C)C(=O)C(=O)N1CCCCC1C(=O)OC(CCc1ccccc1)CCc1ccccc1 (stereo not drawn) [E]
Clearance [2]: 41.8 µL/min

CCC(C)(C)C(=O)C(=O)N1CCC[C@H]1C(=O)SCCCc1cccnc1 [GPI 1046]
protection of fluorogold labeled retinal ganglion cells ([3]; 10 mg/kg s.c. 1 hour prior to ischemia and 10 mg/kg/day for next four days, 28 days after ischemia): noticeable protection of a large proportion of the vulnerable ganglion cell population
density of degenerating myelin figures in optic nerve ([3]; 28 days after 1 hour retinal ischemic episode): dramatically decreased the density of degenerating myelin figures
latency, hot plate and tail flick [4]: improvement in latency
% RGCs Rescued ([5]; 14 days GPI 1046): 5.3%
% surviving RGCs with ON axons ([5]; 14 days GPI 1046): 33.6%
ON head area (% sham) ([5]; 14 days GPI 1046): 76%
Spared RGC population ([5]; 14 days GPI 1046): 20,275
increased ON axon density ([5]; 14 days GPI 1046): 1.5×
ON axon Count ([5]; 14 days GPI 1046): 6820
Distal optic nerve myelin basic protein loss ([5]; 14 days GPI 1046, cross sectional area multiplied by myelin density): 47% loss
Distal optic nerve shrinkage ([5]; 14 days GPI 1046, cross sectional area vs sham): 33% shrinkage
ON Axon density ([5]; 14 days GPI 1046, mean ± SEM RT97 labeled axons in 200 μm × 200 μm region): 569 ± 23
Proximal optic nerve myelin basic protein Density, % recovery ([5]; 14 days GPI 1046, % areal coverage of cross section): 1.6 ± 3.0 SEM % recovery
RGC Counts ([5]; 28 days GPI 1046 10 mg/kg/day sc, mean density ± SEM of Fluoro-gold labeled RGC in 400 μm × 400 μm gridfields): 67.9 ± 5.8
% surviving RGCs with ON axons ([5]; 28 days GPI 1046): 81.4%
Distal optic nerve myelin preservation ([5]; 28 days GPI 1046): 99% myelin
ON head area (% sham) ([5]; 28 days GPI 1046): 95%*
Spared RGC population ([5]; 28 days GPI 1046): 28,096*
increased ON axon density ([5]; 28 days GPI 1046): 5.0×
ON axon Count ([5]; 28 days GPI 1046): 22,861*
Distal optic nerve, less shrinkage ([5]; 28 days GPI 1046, cross sectional area vs sham): 56% less shrinkage*
Proximal optic nerve myelin basic protein Density, % recovery ([5]; 28 days GPI 1046): 70 ± 6.3 SEM % recovery
density of myelin, distal stump ([5]; first 14 days GPI 1046): slightly increase the density of myelin
shrinkage of the distal stump ([5]; first 14 days GPI 1046): did not protect against shrinkage
protection of optic nerve axons ([5]; first 14 days GPI 1046, proximal stump): 5.3%
cross sectional shrinkage of the distal stump ([5]; first 28 days GPI 1046): prevented cross sectional shrinkage
fascicular staining pattern for myelin basic protein, proximal stump ([5]; first 28 days GPI 1046): dramatic preservation of the fascicular staining pattern
myelin levels, distal stump, % of normal levels ([5]; first 28 days GPI 1046): 99%
neovascularization in the PR, ONL, OPL and INL [6, 8]: reduced neovascularization
neuronal loss in the ONL [6, 8]: did not appear to protect against neuronal loss
loss of neurons in the INL and GCL ([6]; 28 day treatment beginning 8 weeks after onset, vs streptozotocin/vehicle controls): appeared to decrease the loss of neurons
Clearance [2]: 63.8 µL/min
axons in the proximal stump of the transected nerve (RT97) [7]: preserved the axons of virtually all protected neurons
ganglion cell population spared [7]: 25%
spatial memory performance, retention testing (swim distance), aged impaired GPI-1046 vs aged impaired vehicle (aged impaired mice; retention testing after 3 weeks of dosing, F1.69=8.11, P=0.006): significantly enhanced spatial memory performance
retention phase swim distance, young vs aged impaired GPI-1046 (aged impaired mice; F1.69=3.09, P=0.08): no longer any statistically significant difference
RT97 + RGC axon density 14 days after ON transection (% ON axons rescued) [1]: 60.5% ± 3.9 SEM

CCC(C)(C)C(=O)C(=O)N1CCCC[C@H]1C(=O)O [G]
RT97 + RGC axon density 14 days after ON transection (% ON axons rescued) [1]: 34.0% ± 4.8% SEM

CCC(C)(C)C(=O)C(=O)N1CCCC[C@H]1C(N)=O [H]
RT97 + RGC axon density 14 days after ON transection (% ON axons rescued) [1]: 30.3% ± 8.0% SEM

O=C(OCCCc1cccnc1)[C@@H]1CCCN1C(=S)NC1CCCCC1 [I]
Clearance [2]: 8.0 µL/min
RT97 + RGC axon density 14 days after ON transection (% ON axons rescued) [1]: 23.8% ± 5.3 SEM

CCC(C)(C)C(=O)C(=O)N1CCC[C@H]1C(=O)CCCCc1cccnc1 [J]
Clearance [2]: 1.5 µL/min
RT97 + RGC axon density 14 days after ON transection (% ON axons rescued) [1]: 15.8% ± 4.8% SEM

CCC(C)(C)C(=O)C(=O)N1CCC[C@H]1C(=O)O [L]
Clearance [2]: 5.2 µL/min
RT97 + RGC axon density 14 days after ON transection (% ON axons rescued) [1]: 7.8% ± 3.0% SEM

CCC(C)(C)C(=O)C(=O)N1CCC[C@H]1C(=O)SCCC(c1ccccc1)c1ccccc1 [M]
Clearance [2]: 12.5 µL/min
RT97 + RGC axon density 14 days after ON transection (% ON axons rescued) [1]: −6.3% ± 3.9% SEM

CN(C)C(=O)N1CCC[C@H]1C(=O)SCCCc1ccccc1 [N]
Clearance [2]: 21.9 µL/min
